Data on 2 compounds can be found in patent US8372871B2, “Histidinol dehydrogenase inhibitors, and use thereof as medicaments” (priority 2008, dated 2013).

Test [1] deals with B. suis in the macrophage. It counts as cell-based, Brucella suis.
The target in test [2] is B. suis histidinol dehydrogenase (Brucella suis biovar 1, UniProt Q8G2R2). The experiment in a line: biochemical. It counts as biochemical.
The test system of the next test is B. suis. Nature of the test: microbe, parasite or virus in culture. Type of test: cell-based, Brucella suis. As to conditions: for inhibition at 50 µM / inhibition at 100 µM: Brucella suis, 168 h, read-out: Effects on the growth of B. suis (%) (inhibition of bacterial growth).

The structures appear in SMILES notation.

In general, IC50 refers to the midpoint of a concentration-inhibition curve. A low value points to greater potency in that assay. One may read the inhibition as the percentage by which the read-out fell short of the control.

Sequence of B. suis histidinol dehydrogenase (Q8G2R2 whole entry, looked up): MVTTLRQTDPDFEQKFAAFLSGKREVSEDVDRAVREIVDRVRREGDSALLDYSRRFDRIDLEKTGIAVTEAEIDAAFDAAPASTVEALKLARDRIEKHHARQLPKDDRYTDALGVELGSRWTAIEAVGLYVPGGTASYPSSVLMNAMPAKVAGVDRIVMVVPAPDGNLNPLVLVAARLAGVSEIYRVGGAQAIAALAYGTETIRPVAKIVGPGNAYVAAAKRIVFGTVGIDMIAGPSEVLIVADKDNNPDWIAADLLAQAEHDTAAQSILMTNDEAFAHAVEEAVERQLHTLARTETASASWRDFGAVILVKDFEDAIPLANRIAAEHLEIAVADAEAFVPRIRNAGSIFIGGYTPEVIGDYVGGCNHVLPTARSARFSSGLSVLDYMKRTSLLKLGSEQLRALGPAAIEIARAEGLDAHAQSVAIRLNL

Take `N[C@@H](Cc1c[nH]cn1)C(=O)Cc1ccc(C#Cc2ccccc2)cc1` [Compound 3a, (3S)-3-amino-4-(1H-imidazol-4-yl)-1-[4-(phenylethynyl)phenyl] butan-2-one dihydrochlorhydrate]: in test [1], the “Inhibition of the intracellular proliferation of the bacteria in the macrophage” value is “approximately 1000 times”. In test [2], the “Affinity for HDH” value is listed as “significant affinity” and the IC50 came to 3 nM. In the test with B. suis, the “Inhibition of the growth of the bacteria in liquid medium” value is “completely inhibit”, the inhibition at 50 µM is 100% and the inhibition at 100 µM is 100%.
In the case of `CCCCCc1ccc(C#Cc2ccc(CC(=O)[C@@H](N)Cc3c[nH]cn3)cc2)cc1` [Compound 3d, (3S)-3-amino-4-(1H-imidazol-4-yl)-1-{4-[(4-pentylphenyl)ethynyl]phenyl}butan-2-one dihydrochlorhydrate], the midpoint of inhibition in test [2], the IC50, lay at 8.5 nM. In addition, in the test with B. suis, the inhibition at 50 µM was 30% and the inhibition at 100 µM worked out at 30%.
